Test results: patent US12043599B2, “Herbicidal compounds” (SYNGENTA PARTICIPATIONS AG, priority 2018, dated 2024)

Tests used:
Format in all cases: in vivo
Details in all cases: 250 g/h, evaluated after 13 days
[1] = test system: Setaria faberi (SETFA); assay: Post-emergence herbicidal glasshouse test, percentage damage
In short: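 Wheat, barley and Setaria faberi were sprayed post-emergence after 8 days' growth (24/16 °C, 14 h light, 65% humidity) with compound in acetone/water (50:50) containing 0.5% Tween 20, at the indicated rates. On wheat, compounds were also applied with cloquintocet-mexyl at 50 g/ha. Damage was scored after 13 days on a five-point scale (5=80-100% to 1=0-19%).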

[2] = test system: Setaria faberi (SETFA); assay: Pre-emergence herbicidal glasshouse test, percentage damage
In short: (§1)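 Pots of the weeds sprayed either 1 day after sowing (pre-emergence) or after 8 days' growth (post-emergence), at 250 g/h in acetone/water with 0.5% Tween 20. Grown in a glasshouse at 24/16° C. day/night with 14 h light and 65% humidity. Damage scored 13 days later on a 1–5 scale (5=80-100%, 1=0-19%).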

[3] = test system: Lolium perenne (LOLPE); assay: as above
In short: as §1

[4] = test system: Alopecurus myosuroides (ALOMY); assay: as above
In short: as §1

[5] = test system: Avena fatua (AVEFA); assay: as above
In short: as §1

[6] = test system: Echinochloa crus-galli (ECHCG); assay: as above
In short: as §1

[7] = test system: Lolium perenne (LOLPE); assay: Post-emergence herbicidal glasshouse test, percentage damage
In short: as §1

[8] = test system: Alopecurus myosuroides (ALOMY); assay: as above
In short: as §1

[9] = test system: Avena fatua (AVEFA); assay: as above
In short: as §1

[10] = test system: Echinochloa crus-galli (ECHCG); assay: as above
In short: as §1

CC#Cc1cc(C)c(C2C(=O)CC3(CCN(C(=O)c4ccc(C(F)(F)F)cn4)CC3)CC2=O)c(C)c1 [Compound A89]
SETFA POST percentage damage (five point scale) [1]: 5 (5=80-100%) | SETFA PRE percentage damage (five point scale) [2]: 5 (5=80-100%) | LOLPE PRE percentage damage (five point scale) [3]: 5 (5=80-100%) | ALOMY PRE percentage damage (five point scale) [4]: 5 (5=80-100%) | AVEFA PRE percentage damage (five point scale) [5]: 5 (5=80-100%) | ECHCG PRE percentage damage (five point scale) [6]: 5 (5=80-100%) | LOLPE POST percentage damage (five point scale) [7]: 5 (5=80-100%) | ALOMY POST percentage damage (five point scale) [8]: 5 (5=80-100%) | AVEFA POST percentage damage (five point scale) [9]: 5 (5=80-100%) | ECHCG POST percentage damage (five point scale) [10]: 5 (5=80-100%)

CC#Cc1cc(C)c(C2C(=O)CC3(CCN(C(=O)c4cc(C(F)(F)F)ccn4)CC3)CC2=O)c(C)c1 [Compound A90]
SETFA POST percentage damage (five point scale) [1]: 5 (5=80-100%) | SETFA PRE percentage damage (five point scale) [2]: 5 (5=80-100%) | LOLPE PRE percentage damage (five point scale) [3]: 5 (5=80-100%) | ALOMY PRE percentage damage (five point scale) [4]: 5 (5=80-100%) | AVEFA PRE percentage damage (five point scale) [5]: 5 (5=80-100%) | ECHCG PRE percentage damage (five point scale) [6]: 5 (5=80-100%) | LOLPE POST percentage damage (five point scale) [7]: 5 (5=80-100%) | ALOMY POST percentage damage (five point scale) [8]: 5 (5=80-100%) | AVEFA POST percentage damage (five point scale) [9]: 5 (5=80-100%) | ECHCG POST percentage damage (five point scale) [10]: 5 (5=80-100%)

CC#Cc1cc(C)c(C2C(=O)CC3(CCN(C(=O)c4cccc(C(F)(F)F)n4)CC3)CC2=O)c(C)c1 [Compound A91]
SETFA POST percentage damage (five point scale) [1]: 5 (5=80-100%) | SETFA PRE percentage damage (five point scale) [2]: 5 (5=80-100%) | LOLPE PRE percentage damage (five point scale) [3]: 5 (5=80-100%) | ALOMY PRE percentage damage (five point scale) [4]: 5 (5=80-100%) | AVEFA PRE percentage damage (five point scale) [5]: 5 (5=80-100%) | ECHCG PRE percentage damage (five point scale) [6]: 5 (5=80-100%) | LOLPE POST percentage damage (five point scale) [7]: 5 (5=80-100%) | ALOMY POST percentage damage (five point scale) [8]: 5 (5=80-100%) | AVEFA POST percentage damage (five point scale) [9]: 5 (5=80-100%) | ECHCG POST percentage damage (five point scale) [10]: 5 (5=80-100%)

CC#Cc1cc(C)c(C2C(=O)CC3(CCN(C(=O)Cc4cccnc4)CC3)CC2=O)c(C)c1 [Compound A99]
SETFA POST percentage damage (five point scale) [1]: 5 (5=80-100%) | SETFA PRE percentage damage (five point scale) [2]: 4 (4=60-79%) | LOLPE PRE percentage damage (five point scale) [3]: 4 (4=60-79%) | ALOMY PRE percentage damage (five point scale) [4]: 3 (3=40-59%) | AVEFA PRE percentage damage (five point scale) [5]: 3 (3=40-59%) | ECHCG PRE percentage damage (five point scale) [6]: 5 (5=80-100%) | LOLPE POST percentage damage (five point scale) [7]: 4 (4=60-79%) | ALOMY POST percentage damage (five point scale) [8]: 4 (4=60-79%) | AVEFA POST percentage damage (five point scale) [9]: 5 (5=80-100%) | ECHCG POST percentage damage (five point scale) [10]: 5 (5=80-100%)

CC#Cc1cc(C)c(C2C(=O)CC3(CCN(C(=O)Cc4ccncc4)CC3)CC2=O)c(C)c1 [Compound A100]
SETFA POST percentage damage (five point scale) [1]: 5 (5=80-100%) | SETFA PRE percentage damage (five point scale) [2]: 5 (5=80-100%) | LOLPE PRE percentage damage (five point scale) [3]: 5 (5=80-100%) | ALOMY PRE percentage damage (five point scale) [4]: 3 (3=40-59%) | AVEFA PRE percentage damage (five point scale) [5]: 3 (3=40-59%) | ECHCG PRE percentage damage (five point scale) [6]: 5 (5=80-100%) | LOLPE POST percentage damage (five point scale) [7]: 5 (5=80-100%) | ALOMY POST percentage damage (five point scale) [8]: 4 (4=60-79%) | AVEFA POST percentage damage (five point scale) [9]: 5 (5=80-100%) | ECHCG POST percentage damage (five point scale) [10]: 5 (5=80-100%)
